Target: T1, hNPRA (Homo sapiens, UniProt P16066)
T1 construct: expressed in transfected cells
T1 sequence (P16066 33-1061): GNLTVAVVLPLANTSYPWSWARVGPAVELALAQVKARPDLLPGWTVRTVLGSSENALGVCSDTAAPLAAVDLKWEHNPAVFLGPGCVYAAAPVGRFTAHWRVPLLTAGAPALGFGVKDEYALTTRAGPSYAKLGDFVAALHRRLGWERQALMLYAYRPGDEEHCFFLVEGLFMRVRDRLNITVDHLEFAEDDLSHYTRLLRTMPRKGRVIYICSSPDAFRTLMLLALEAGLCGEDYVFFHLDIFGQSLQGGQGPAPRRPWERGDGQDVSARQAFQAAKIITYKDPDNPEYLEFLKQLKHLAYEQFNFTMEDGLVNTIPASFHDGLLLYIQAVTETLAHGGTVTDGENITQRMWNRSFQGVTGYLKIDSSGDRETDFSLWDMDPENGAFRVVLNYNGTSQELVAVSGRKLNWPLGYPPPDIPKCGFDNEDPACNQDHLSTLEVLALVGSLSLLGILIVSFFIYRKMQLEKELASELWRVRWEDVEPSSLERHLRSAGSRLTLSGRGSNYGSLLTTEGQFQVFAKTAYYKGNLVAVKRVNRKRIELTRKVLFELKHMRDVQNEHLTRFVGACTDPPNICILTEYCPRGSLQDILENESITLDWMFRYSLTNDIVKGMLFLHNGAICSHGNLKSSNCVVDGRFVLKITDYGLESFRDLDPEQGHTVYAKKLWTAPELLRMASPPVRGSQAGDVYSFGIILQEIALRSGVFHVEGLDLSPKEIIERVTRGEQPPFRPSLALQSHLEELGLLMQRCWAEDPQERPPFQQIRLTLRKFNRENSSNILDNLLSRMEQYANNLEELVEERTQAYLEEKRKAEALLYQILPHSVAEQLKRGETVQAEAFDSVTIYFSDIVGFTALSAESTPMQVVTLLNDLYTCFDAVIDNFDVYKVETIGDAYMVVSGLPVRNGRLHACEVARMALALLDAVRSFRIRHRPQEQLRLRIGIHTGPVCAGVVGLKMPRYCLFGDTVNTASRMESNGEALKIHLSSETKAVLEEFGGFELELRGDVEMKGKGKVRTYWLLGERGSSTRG
Assay: NPRA Functional Cell Assay (cGMP HTRF)
Type: cell-based
Conditions: Human NPRA HEK JumpIn stable cells; cGMP by HTRF after 1 hour at 37° C.; 10-point dose response
Description: Assay Buffer components HEPES and Opti-MEM® I Reduced-Serum with Glutamine (no phenol red) were from Gibco/Invitrogen (Thermo Fisher Scientific, Waltham, Mass. USA). 3-Isobutyl-1-methylxanthine (IBMX) and 4-(3-Butoxy-4-methoxybenzyl)imidazolidin-2-one (RO20) were obtained from Sigma-Aldrich (St. Louis, Mo., USA). DPBS (Dulbecco's phosphate-buffered saline) without Ca2+ and Mg2+ was purchased from GE Healthcare Bio-Sciences (Pittsburgh, Pa., USA). 384 well white Optiplates were from Perkin Elmer (Atlantic Highlands, N.J., USA). Human ANP (Atrial Natriuretic Peptide) (1-28) was purchased from Sigma-Aldrich (Catalog #A1663) and rat ANP (1-28) from Bachem (Torrance, Calif., USA) (Catalog #H2100). Human-BNP (Human-Brain Natriuretic Peptide) (1-32 AA) was purchased from American Peptide Company (Sunnyvale, Calif., USA) (product No. 14-1-90). cGMP kits were purchased from Cisbio. The assay ready frozen (ARF) Human/rat/dog NPRA HEK JumpIn Stable frozen cells (low passage number 5-11) were prepared in-house.
Test compounds were titrated in DMSO in a 10-point dose response in a separate step followed by a 100-fold dilution into the reaction. Positive response for each assay was determined using 10 nM rat-ANP peptide (rat cells) or 50 nM h-ANP peptide (human and dog cells).
Cells were thawed, washed with DPBS and resuspended in assay buffer (Opti-MEM+Glutamine, phenol red free media, 10 mM HEPES, 100 uM IBMX and 100 uM RO20) that was warmed to 37° C. Cells were then transferred to microplates via a Microplate Combi dispenser at a density of 1500, 400 and 1200 cells/well for human, rat and dog cells respectively, followed by acoustic transfer (Echo) of compound.
(§1) Compounds and cells were incubated at 37° C. with 5% CO2 for 1 hour, after which the cells were lysed and cGMP was captured using a CisBio cGMP HTRF assay kit. The TRF signal was measured with an Envision plate reader (emission set to 615 and 665 nm) after 1 hour incubation at ambient temperature. The TRF signal was converted to [cGMP] through the use of a cGMP calibration curve on each microplate. EC50's were generated from the resulting dose response curves by use of a 4 parameter logistic algorithm.
Assay Buffer components HEPES and Opti-MEM® I Reduced-Serum with Glutamine (no phenol red) were from Gibco/Invitrogen. 3-Isobutyl-1-methylxanthine (IBMX) and 4-(3-Butoxy-4-methoxybenzyl)imidazolidin-2-one (RO20) were obtained from Sigma. DPBS (Dulbecco's phosphate-buffered saline) without Ca2+ and Mg2+ was purchased from GE Healthcare Bio-Sciences (Pittsburgh, Pa., USA). 384 well white Optiplates were from Perkin Elmer (Atlantic Highlands, N.J., USA). Human ANP (1-28) was purchased from Sigma (A1663) and rat ANP (1-28) from Bachem (H2100). Human-BNP (1-32 AA) was purchased from American Peptide Company (Sunnyvale, Calif., USA) (product No. 14-1-90). cGMP kits were purchased from Cisbio (Bedford, Mass., USA). The assay ready frozen (ARF) Human/rat/dog NPRA HEK JumpIn Stable frozen cells (low passage number 5-11) were prepared in-house.
as §1, with “Envision®” for “Envision”, “(Perkin Elmer)(emission” for “(emission”
hNPRA EC50 (nM) are were determined for the compounds of Example 1 through 273 and are reported in the Experimental section of this application.

Row | SMILES | EC50 [nM]
1 | CC(C)[C@]1(F)CCc2nc3c(F)cc(C(=O)N[C@H](CCN4CCC5(CC[C@H](O)C5)CC4)c4ccc(-c5ccnnc5)nc4)cc3cc2C1 (racemic) [Example 48, rac-(7S)-4,7-difluoro-7-isopropyl-N-[rac-(1R)-1-(6-pyridazin-4-yl-3-pyridyl)-3-[rac-(3S)-3-hydroxy-8-azaspiro[4.5]decan-8-yl]propyl]-6,8-dihydro-5H-acridine-2-carboxamide] | 105
2 | CC(C)[C@]1(F)CCc2nc3c(F)cc(C(=O)N[C@H](CCN4CCC5(CC[C@@H](O)C5)CC4)c4ccc(-c5ccnnc5)nc4)cc3cc2C1 (racemic) [Example 49, rac-(7S)-4,7-difluoro-7-isopropyl-N-[rac-(1R)-1-(6-pyridazin-4-yl-3-pyridyl)-3-[rac-(3R)-3-hydroxy-8-azaspiro[4.5]decan-8-yl]propyl]-6,8-dihydro-5H-acridine-2-carboxamide] | 98.5
3 | CC(C)[C@]1(F)CCc2nc3c(F)cc(C(=O)N[C@H](CCN4CCC5(CC4)COC5)c4ccc(-c5ccnnc5)nc4)cc3cc2C1 (racemic) [Example 50, rac-(7S)-4,7-difluoro-7-isopropyl-N-[rac-(1R)-3-(2-oxa-7-azaspiro[3.5]nonan-7-yl)-1-(6-pyridazin-4-yl-3-pyridyl)propyl]-6,8-dihydro-5H-acridine-2-carboxamide] | 240
4 | COCCCC1CCN(CC[C@@H](NC(=O)c2cc(F)c3nc4c(cc3c2)C[C@](F)(C(C)C)CC4)c2ccc(-c3ccnnc3)nc2)CC1 (racemic) [Example 51, rac-(7S)-4,7-difluoro-7-isopropyl-N-[rac-(1R)-3-[4-(3-methoxypropyl)-1-piperidyl]-1-(6-pyridazin-4-yl-3-pyridyl)propyl]-6,8-dihydro-5H-acridine-2-carboxamide] | 175
5 | CC(C)[C@]1(F)CCc2nc3c(F)cc(C(=O)N[C@H](CCN4CCC(C(O)C5(CO)CC5)CC4)c4ccc(-c5ccnnc5)nc4)cc3cc2C1 (mixture of isomers) [Example 54, rac-(7S)-4,7-difluoro-7-isopropyl-N-[rac-(1R)-3-[4-[hydroxy-[1-(hydroxymethyl)cyclopropyl]methyl]-1-piperidyl]-1-(6-pyridazin-4-yl-3-pyridyl)propyl]-6,8-dihydro-5H-acridine-2-carboxamide] | 91.1
6 | CC(C)[C@]1(F)CCc2nc3c(F)cc(C(=O)N[C@H](CCN4CCC5(CCCO5)CC4)c4ccc(-c5ccnnc5)nc4)cc3cc2C1 (racemic) [Example 55, rac-(7S)-4,7-difluoro-7-isopropyl-N-[rac-(1R)-3-(1-oxa-8-azaspiro[4.5]decan-8-yl)-1-(6-pyridazin-4-yl-3-pyridyl)propyl]-6,8-dihydro-5H-acridine-2-carboxamide] | 344
7 | CC(C)C1CCN(CC[C@@H](NC(=O)c2cc(F)c3nc4c(cc3c2)C[C@](F)(C(C)C)CC4)c2ccc(-c3ccnnc3)nc2)CC1 (racemic) [Example 56, rac-(7S)-4,7-difluoro-7-isopropyl-N-[rac-(1R)-3-(4-isopropyl-1-piperidyl)-1-(6-pyridazin-4-yl-3-pyridyl)propyl]-6,8-dihydro-5H-acridine-2-carboxamide] | 258

Other lines, results leading:

Row | EC50 [nM] | SMILES
8 | 188 | CC(C)[C@]1(F)CCc2nc3c(F)cc(C(=O)N[C@H](CCN4CCC(C(C)(C)O)CC4)c4ccc(-c5ccnnc5)nc4)cc3cc2C1 (racemic) [Example 47, rac-(7S)-4,7-difluoro-7-isopropyl-N-[rac-(1R)-3-[4-(1-hydroxy-1-methyl-ethyl)piperidin-1-ium-1-yl]-1-(6-pyridazin-4-yl-3-pyridyl)propyl]-6,8-dihydro-5H-acridine-2-carboxamide;2,2,2-trifluoroacetate]
9 | 258 | CC(C)[C@]1(F)CCc2nc3c(F)cc(C(=O)N[C@H](CCN4CCC5(O)CCCCC5C4)c4ccc(-c5ccnnc5)nc4)cc3cc2C1 (mixture of isomers) [Example 52, rac-(7S)-4,7-difluoro-7-isopropyl-N-[rac-(1R)-3-(4a-hydroxy-1,3,4,5,6,7,8,8a-octahydroisoquinolin-2-yl)-1-(6-pyridazin-4-yl-3-pyridyl)propyl]-6,8-dihydro-5H-acridine-2-carboxamide]
10 | 98.1 | CC(C)[C@]1(F)CCc2nc3c(F)cc(C(=O)N[C@H](CCN4CCCCC4CCO)c4ccc(-c5ccnnc5)nc4)cc3cc2C1 (mixture of isomers) [Example 53, rac-(7S)-4,7-difluoro-7-isopropyl-N-[rac-(1R)-3-[2-(2-hydroxyethyl)-1-piperidyl]-1-(6-pyridazin-4-yl-3-pyridyl)propyl]-6,8-dihydro-5H-acridine-2-carboxamide]
11 | 142 | CC(C)[C@]1(F)CCc2nc3c(F)cc(C(=O)N[C@H](CCN4CCCOCC4)c4ccc(-c5ccnnc5)nc4)cc3cc2C1 (racemic) [Example 57, rac-(7S)-4,7-difluoro-7-isopropyl-N-[rac-(1R)-3-(1,4-oxazepan-4-yl)-1-(6-pyridazin-4-yl-3-pyridyl)propyl]-6,8-dihydro-5H-acridine-2-carboxamide]
12 | 79.7 | CC(C)[C@]1(F)CCc2nc3c(F)cc(C(=O)N[C@H](CCN4CCCCC4CO)c4ccc(-c5ccnnc5)nc4)cc3cc2C1 (mixture of isomers) [Example 58, rac-(7S)-4,7-difluoro-7-isopropyl-N-[rac-(1R)-3-[2-(hydroxymethyl)-1-piperidyl]-1-(6-pyridazin-4-yl-3-pyridyl)propyl]-6,8-dihydro-5H-acridine-2-carboxamide]
13 | 434 | CC(C)[C@]1(F)CCc2nc3c(F)cc(C(=O)N[C@H](CCN4CCCCC4CN(C)C)c4ccc(-c5ccnnc5)nc4)cc3cc2C1 (mixture of isomers) [Example 59, rac-(7S)-4,7-difluoro-7-isopropyl-N-[rac-(1R)-3-[2-[(dimethylamino)methyl]-1-piperidyl]-1-(6-pyridazin-4-yl-3-pyridyl)propyl]-6,8-dihydro-5H-acridine-2-carboxamide]

— US20220281886A1, “NATRIURETIC PEPTIDE RECEPTOR A AGONISTS USEFUL FOR THE TREATMENT OF CARDIOMETABOLIC DISEASES, KIDNEY DISEASE AND DIABETES” (Merck Sharp & Dohme Corp., priority 2019, published 2022)
